“And” between values parts separate entries of the source, which are not always exact repeats. Equal entries are not always repeated. Where two headings read alike, the source gives them in different places.
From the text: Concentrations versus time data are plotted in FIG. 1 through FIG. 6.
[1] = SC 10 mg/kg, individual rat (777)
[2] = SC 10 mg/kg, individual rats 776, 777, 778, 10 mg/kg
[3] = SC 50 mg/kg, individual rats 779, 780, 781, 50 mg/kg
[4] = SC 100 mg/kg, individual rats 782, 783, 784, 100 mg/kg
[5] = SC 100 mg/kg, individual rats 782, 783, 100 mg/kg

For `O=[13C](O)[13CH2][13CH2][13C](=O)O` [^13C4-succinate], the “Time post dosing at which maximum plasma concentrations were observed” value (from here on “Time post dosing”) (SC 10 mg/kg) was 15 min, the Plasma concentration (SC 10 mg/kg, 0.50 hr, individual rats 776, 777, 778, 10 mg/kg) was 1280 ng/mL (2×) and 854 ng/mL and the Plasma concentration (SC 10 mg/kg, 0.50 hr, mean) was 1138 ng/mL. For the same compound, the Plasma concentration (SC 10 mg/kg, 1.0 hr, individual rats 776, 777, 778, 10 mg/kg) was 430 ng/mL and 220 ng/mL and 415 ng/mL, the Plasma concentration (SC 10 mg/kg, 1.0 hr, mean) was 355 ng/mL and the Plasma concentration (SC 10 mg/kg, 2.0 hr, individual rats 776, 777, 778, 10 mg/kg) was 28.5 ng/mL and 10.6 ng/mL and 23.2 ng/mL. For the same compound, the Plasma concentration (SC 10 mg/kg, 2.0 hr, mean) was 20.8 ng/mL, the Plasma concentration (SC 10 mg/kg, 4.0 hr, mean) was 7.59 ng/mL and the “AUC∞” value [1] was 1030 ng·h/mL. For the same compound, the “Dose-normalized AUC∞” value [1] was 103 kg·ng·h/mL/mg, the t1/2 [1] was 27.2 min and the tmax (SC 10 mg/kg, individual rats 776, 777, 778) was 15 min. For the same compound, the Bioavailability (SC 10 mg/kg, individual rats 776, 777, 778, vs average IV dose-normalized AUClast, 10 mg/kg) was 98.9% and 47.7% and 76.7%, the AUClast [2] was 2131 ng·h/mL and 1027 ng·h/mL and 1653 ng·h/mL and the Cmax [2] was 5090 ng/mL and 2090 ng/mL and 3260 ng/mL. For the same compound, the MRTlast [2] was 30.2 min and 29.3 min and 31.6 min, the AUClast (SC 10 mg/kg, mean) was 1604 ng·h/mL and the Cmax (SC 10 mg/kg, mean) was 3480 ± 1512 ng/mL. The MRTlast (SC 10 mg/kg, mean) was 30.4 min, the tmax (SC 10 mg/kg, mean) was 15 min and the Bioavailability (SC 10 mg/kg, mean, vs average IV dose-normalized AUClast) was 74.4±25.7%. The “Dose-normalized AUClast” value (SC 10 mg/kg, mean, 10 mg/kg) was 160 ± 55.4 kg·ng·h/mL/mg, the “Dose-normalized AUClast” value (SC 10 mg/kg, mean, listed as 13C4-Succinate, 10 mg/kg) was 160 kg·ng·h/mL/mg and the “Time post dosing” value (SC 50 mg/kg) was 15 min. For the same compound, the Plasma concentration (SC 50 mg/kg, 0.50 hr, individual rats 779, 780, 781, 50 mg/kg) was 9750 ng/mL and 15500 ng/mL and 11100 ng/mL, the Plasma concentration (SC 50 mg/kg, 0.50 hr, mean) was 12117 ng/mL and the Plasma concentration (SC 50 mg/kg, 1.0 hr, individual rats 779, 780, 781, 50 mg/kg) was 1020 ng/mL and 2420 ng/mL and 2020 ng/mL. For the same compound, the Plasma concentration (SC 50 mg/kg, 1.0 hr, mean) was 1820 ng/mL, the Plasma concentration (SC 50 mg/kg, 2.0 hr, individual rats 779, 780, 781, 50 mg/kg) was 102 ng/mL and 163 ng/mL and 122 ng/mL and the Plasma concentration (SC 50 mg/kg, 2.0 hr, mean) was 129 ng/mL. The Plasma concentration (SC 50 mg/kg, 4.0 hr, individual rats 779, 780, 781, 50 mg/kg) was 15.1 ng/mL and 10.3 ng/mL and 12.3 ng/mL, the Plasma concentration (SC 50 mg/kg, 4.0 hr, mean) was 12.6 ng/mL and the Plasma concentration (SC 50 mg/kg, 8.0 hr, mean) was 18.8 ng/mL. The tmax (SC 50 mg/kg, individual rats 779, 780, 781) was 15 min, the Bioavailability (SC 50 mg/kg, individual rats 779, 780, 781, vs average IV dose-normalized AUClast, 50 mg/kg) was 78.0% and 116% and 98.7% and the AUClast [3] was 8405 ng·h/mL and 12496 ng·h/mL and 10632 ng·h/mL. For the same compound, the Cmax [3] was 14800 ng/mL and 18300 ng/mL and 18900 ng/mL, the “Dose-normalized AUClast” value [3] was 168 kg·ng·h/mL/mg and 250 kg·ng·h/mL/mg and 213 kg·ng·h/mL/mg and the MRTlast [3] was 33.5 min and 31.8 min and 30.3 min. For the same compound, the AUClast (SC 50 mg/kg, mean) was 10511 ng·h/mL, the Cmax (SC 50 mg/kg, mean) was 17333 ± 2214 ng/mL and the MRTlast (SC 50 mg/kg, mean) was 31.9 min. For the same compound, the tmax (SC 50 mg/kg, mean) was 15 min, the Bioavailability (SC 50 mg/kg, mean, vs average IV dose-normalized AUClast) was 97.6±19.0% and the “Dose-normalized AUClast” value (SC 50 mg/kg, mean, 50 mg/kg) was 210 ± 41.0 kg·ng·h/mL/mg. The “Dose-normalized AUClast” value (SC 50 mg/kg, mean, listed as 13C4-Succinate, 50 mg/kg) was 210 kg·ng·h/mL/mg, the “Time post dosing” value (SC 100 mg/kg) was 15 min and the Plasma concentration (SC 100 mg/kg, 0.50 hr, individual rats 782, 783, 784, 100 mg/kg) was 24500 ng/mL and 13900 ng/mL and 25200 ng/mL. For the same compound, the Plasma concentration (SC 100 mg/kg, 0.50 hr, mean) was 21200 ng/mL, the Plasma concentration (SC 100 mg/kg, 1.0 hr, individual rats 782, 783, 784, 100 mg/kg) was 6840 ng/mL and 4980 ng/mL and 7750 ng/mL and the Plasma concentration (SC 100 mg/kg, 1.0 hr, mean) was 6523 ng/mL. For the same compound, the Plasma concentration (SC 100 mg/kg, 2.0 hr, individual rats 782, 783, 784, 100 mg/kg) was 364 ng/mL and 435 ng/mL and 779 ng/mL, the Plasma concentration (SC 100 mg/kg, 2.0 hr, mean) was 526 ng/mL and the Plasma concentration (SC 100 mg/kg, 4.0 hr, individual rats 782, 783, 784, 100 mg/kg) was 103 ng/mL and 40.8 ng/mL and 52.9 ng/mL. For the same compound, the Plasma concentration (SC 100 mg/kg, 4.0 hr, mean) was 65.6 ng/mL, the Plasma concentration (SC 100 mg/kg, 8.0 hr, mean) was 25.9 ng/mL and the tmax (SC 100 mg/kg, individual rats 782, 783, 784) was 15 min. The Bioavailability (SC 100 mg/kg, individual rats 782, 783, 784, vs average IV dose-normalized AUClast, 100 mg/kg) was 115% (2×) and 72.0%, the AUClast [4] was 24683 ng·h/mL and 15518 ng·h/mL and 24689 ng·h/mL and the Cmax [4] was 37900 ng/mL and 23100 ng/mL and 32000 ng/mL. The “Dose-normalized AUClast” value [4] was 247 hr · kg · ng/mL/mg (2×) and 155 hr · kg · ng/mL/mg, the MRTlast [4] was 35.8 min and 37.7 min and 39.6 min and the “AUC∞” value [5] was 24719 ng·h/mL and 15530 ng·h/mL. For the same compound, the “Dose-normalized AUC∞” value [5] was 247 kg·ng·h/mL/mg and 155 kg·ng·h/mL/mg and the t1/2 [5] was 84 min and 44.8 min.

Source: patent publication US20210346329A1, “TCA CYCLE INTERMEDIATES AND METHODS OF USE THEREOF” (IMBRIA PHARMACEUTICALS, INC., priority 2018, published 2021)
